Measured values taken from paper PMC6672714 (Frontiers in Physiology, 2019).
“Also recorded” adds a separate entry of the source. Like-named read-outs stand apart in the source and are kept apart here. No end group written: not given here.

Legend:
[1] = test system: intact pituitaries (GnRH1-induced CART secretion); experiment: inhibition of GnRH1-induced CART secretion in intact pituitaries, Western blot; type: cell-based, chicken; conditions: GnRH1 5 nM, 4 h, N = 3
Procedure: As described in our recent study ([Huang et al., 2014]), the intact anterior pituitaries collected from 1-week-old male chicks were washed with PBS and placed on a 48-well plate (NUNC) supplemented with 400 μl serum-free Medium 199 (Invitrogen). After 1-h incubation at 37°C, the medium was replaced by 300 μl serum-free Medium 199 containing different concentrations of chicken GnRH1 or GnRH2 (0.1–100 nM) and incubated for 4 h.
One representative set of Western blotting is shown at the bottom.

[2] = test system: cultured chick pituitary cells (GnRH1-induced CART mRNA); type: cell-based, chicken; conditions: GnRH1 10 nM, 24 h, N = 4
Procedure: (§1) As described in our recent studies ([Huang et al., 2014]; [Mo et al., 2015]), anterior pituitaries collected from 1-week-old chicks were sliced and digested by 0.25% trypsin at 37°C for 20 min. The dispersed pituitary cells were cultured at a density of 5 × 10^5 cells/well in Medium 199 supplemented with 15% fetal bovine serum in a Corning Cell BIND 48-well plates (Corning, Tewksbury, MA) at 37°C with 5% CO2. After 24-h culture, the medium was replaced with serum-free M199 medium and the cells were treated with chicken GnRH1/GnRH2 for the duration (12–48 h) or with increasing doses (0.1–100 nM) of each peptide. The total RNA was then extracted from cultured pituitary cells and the expression of CART and β-actin assayed by qPCR.
“ND” indicates no statistical difference between the two groups. Each data point represents mean ± SEM of four replicates (N = 4). ^**p < 0.01 vs. control; ^#p < 0.01 vs. GnRH1 treatment (in the absence of drug). […] Total ERK2 in cell lysates was also examined and used as internal controls. Note: only a single band for pERK2 or total ERK2 (42 kDa) was detected in cell lysate, because ERK1 gene is lost in chicken genome ([Gerilechaogetu et al., 2009]). The representative sets of independent experimental duplicates are shown here.
“ND” indicates no statistical difference between the two groups. Each data point represents mean ± SEM of four replicates (N = 4). ^**p < 0.01 vs. control. […] The β-actin in cell lysates were also examined and used as internal controls. The representative sets of independent experimental duplicates are shown here.

[3] = test system: cultured chick pituitary cells (CART mRNA); experiment: CART mRNA expression in cultured chick pituitary cells, qPCR; type: cell-based, chicken; conditions: N = 4
Description: Chicken anterior pituitaries were collected either for cell culture, or for total RNA extraction. Total RNA was extracted from chicken tissues or cultured pituitary cells using RNAzol (Molecular Research Center, Cincinnati, OH) and reversely transcribed using M-MLV reverse transcriptase (TaKaRa). Reverse transcription (RT) samples were then used for quantitative real-time PCR (qPCR) assays to investigate the mRNA expression of target genes, as described in our recent studies ([Cai et al., 2015]; [Mo et al., 2015]).
as §1
The data were analyzed by the Student’s t-test (between two groups) or by one-way ANOVA followed by the Dunnett test in GraphPad Prism 5 (GraphPad Software, San Diego, CA). To validate our results, all experiments were repeated at least three times.
The mRNA levels of CART were normalized by β-actin and expressed as the percentage of respective controls. Each value represents the mean ± SEM of four replicates (N = 4). ^*p < 0.05, ^**p < 0.01 vs. respective control. (E) RT-PCR detection of GnRHR2 expression in cultured chick pituitary cells (three replicates). RT was performed in the presence (+) or absence (−) of reverse transcriptase. Parallel PCR of β-actin was performed to serve as an internal control.

[4] = test system: chicken GnRHR1; experiment: pGL3-NFAT-RE-luciferase reporter, calcium signaling pathway, CHO cells expressing chicken GnRHR1; type: cell-based; conditions: four replicates
Description: (§2) Based on the reported cDNA sequences of chicken GnRHR1 and GnRHR2 (accession nos.: NM_204653; NM_001012609) ([Sun et al., 2001]; [Shimizu and Bedecarrats, 2006]), gene-specific primers were used to amplify the open reading frame from adult chicken anterior pituitaries using high-fidelity Taq DNA polymerase (TOYOBO, Japan). The amplified PCR products were cloned into the pcDNA3.1 (+) expression vector (Invitrogen) and sequenced. According to our previously established methods, the signaling property of each receptor was examined in Chinese hamster ovary (CHO) cells using pGL3-NFAT-RE-luciferase ([Wang et al., 2012]), pGL4-SRE-luciferase ([Mo et al., 2015]), and pGL3-CRE-luciferase reporter systems ([Wang et al., 2007]).
(§3) Although two GnRH receptors (GnRHR1 and GnRHR2) have been identified in chickens ([Sun et al., 2001]; [Shimizu and Bedecarrats, 2006]; [Joseph et al., 2009]), their downstream signaling pathways have not been fully characterized.
(§4) Figure 5 Activation of chicken GnRHR1 or GnRHR2 expressed in CHO cells by chicken GnRH1 or GnRH2, monitored by pGL3-NFAT-RE-luciferase (A,D), pGL4-SRE-luciferase (B,E), and pGL3-CRE-luciferease (C,F) reporter systems. […] Each data point represents mean ± SEM of four replicates (N = 4).

[5] = test system: chicken GnRHR1; experiment: pGL3-CRE-luciferase reporter, cAMP/PKA signaling pathway, CHO cells expressing chicken GnRHR1; type: cell-based; conditions: four replicates
Description: as §2, §3, §4

[6] = test system: intact anterior pituitaries (CART secretion); experiment: CART peptide secretion from intact anterior pituitaries incubated in vitro, Western blot; type: cell-based, chicken; conditions: 4 h, intact chick pituitaries, N = 3
Procedure: As described in our recent study ([Huang et al., 2014]), the intact anterior pituitaries collected from 1-week-old male chicks were washed with PBS and placed on a 48-well plate (NUNC) supplemented with 400 μl serum-free Medium 199 (Invitrogen). After 1-h incubation at 37°C, the medium was replaced by 300 μl serum-free Medium 199 containing different concentrations of chicken GnRH1 or GnRH2 (0.1–100 nM) and incubated for 4 h. […] Parallel blotting of β-actin and CART in pituitary tissue lysates was also conducted.
The intracellular CART (iCART) and β-actin levels in the pituitary tissue lysate were also examined in parallel. […] Each data point represents mean ± SEM of three replicates (N = 3). ^*p < 0.05; ^**p < 0.01 vs. respective control. […] One representative set of Western blot is shown at the top of each graph.

[7] = test system: chicken GnRHR2; experiment: pGL3-CRE-luciferase reporter, cAMP/PKA signaling pathway, CHO cells expressing chicken GnRHR2; type: cell-based; conditions: four replicates
Description: as §2, §3, §4

[8] = test system: chicken GnRHR2; experiment: pGL3-NFAT-RE-luciferase reporter, calcium signaling pathway, CHO cells expressing chicken GnRHR2; type: cell-based; conditions: four replicates
Description: as §2, §3, §4

[9] = test system: chicken GnRHR1; experiment: three cell-based luciferase reporter assays, GnRHR1 (qualitative); conditions: GnRHR1, CHO cells, calcium, MAPK/ERK and cAMP/PKA reporters
Description: as §2, §3, §4

[10] = test system: chicken GnRHR2; experiment: pGL4-SRE-luciferase reporter, MAPK/ERK signaling pathway, CHO cells expressing chicken GnRHR2; type: cell-based; conditions: four replicates
Description: as §2, §3, §4

[11] = test system: chicken GnRHR2; experiment: three cell-based luciferase reporter assays, GnRHR2 (qualitative)
Description: as §2, §3, §4

[12] = test system: chicken GnRHR1; experiment: pGL4-SRE-luciferase reporter, MAPK/ERK signaling pathway, CHO cells expressing chicken GnRHR1; type: cell-based; conditions: four replicates
Description: as §2, §3, §4

NCCOB(c1ccccc1)c1ccccc1 [2-APB, 2-aminoethoxydiphenyl borate]
effect on GnRH1-induced CART secretion ([1]; 2-APB 100 μM): significantly inhibited

CN([C@@H](Cc1ccc(OS(=O)(=O)c2cccc3cnccc23)cc1)C(=O)N1CCN(c2ccccc2)CC1)S(=O)(=O)c1cccc2cnccc12 [KN62]
effect on GnRH1-induced CART mRNA expression ([2]; KN62 5 μM): could inhibit GnRH1-induced CART mRNA expression

Cl.c1ccc(C2CCCC2NC2=NCCCCCCCCCCC2)cc1 (stereo not drawn) [MDL12330A]
effect on GnRH1-induced CART mRNA expression ([2]; MDL12330A 20 μM): could abolish GnRH1-induced CART expression

COc1cccc(-c2cc(=O)c3ccccc3o2)c1N [PD98059]
effect on GnRH1-induced CART mRNA expression ([2]; PD98059 100 μM): could inhibit GnRH1-induced CART mRNA expression

COc1ccc2c(c1)CC[C@@H]1[C@@H]2CC[C@]2(C)[C@@H](NCCCCCCN3C(=O)C=CC3=O)CC[C@@H]12 [U73122]
effect on GnRH1-induced CART secretion ([1]; U73122 20 μM): significantly inhibited | effect on GnRH1-induced CART mRNA expression ([2]; U73122 20 μM): could inhibit GnRH1-induced CART mRNA expression

Clc1ccc(C(c2ccc(Cl)cc2)n2cc[n+](CC(OCc3ccc(Cl)cc3Cl)c3ccc(Cl)cc3Cl)c2)cc1 (stereo not drawn) [calmidazolium]
effect on GnRH1-induced CART mRNA expression ([2]; calmidazolium 1 μM): could inhibit GnRH1-induced CART mRNA expression

COc1c(C[C@@H](C)OC(=O)Oc2ccc(O)cc2)c2c3c(C[C@@H](C)OC(=O)c4ccccc4)c(OC)c(=O)c4c(O)cc(OC)c(c5c(OC)cc(O)c(c1=O)c52)c43 [calphostin C]
effect on GnRH1-induced CART mRNA expression ([2]; calphostin C 200 nM): could inhibit GnRH1-induced CART mRNA expression

C=C[C@@]1(C)CC(=O)[C@]2(O)[C@@]3(C)[C@@H](O)CCC(C)(C)[C@@H]3[C@H](O)[C@H](OC(C)=O)[C@@]2(C)O1 [forskolin, reference compound]
effect on CART mRNA expression ([3]; forskolin 2 μM, 24 h): could mimic GnRH1 action on CART expression

COC(=O)C1=C(C)NC(C)=C(C(=O)OC)C1c1ccccc1[N+](=O)[O-] [nifedipine]
effect on GnRH1-induced CART secretion ([1]; nifedipine 5 μM): significantly inhibited | effect on GnRH1-induced CART mRNA expression ([2]; nifedipine 5 μM): could inhibit GnRH1-induced CART mRNA expression

C/C=C(/C)C(=O)O[C@H]1C(C)=C2[C@H]([C@@H]1OC(=O)CCCCCCC)[C@@](C)(OC(C)=O)C[C@H](OC(=O)CCC)[C@@]1(O)[C@H]2OC(=O)[C@@]1(C)O [thapsigargin]
effect on GnRH1-induced CART mRNA expression ([2]; thapsigargin 100 nM): could inhibit GnRH1-induced CART mRNA expression

GnRH2: chicken gonadotropin-releasing hormone 2, synthesized using solid-phase Fmoc chemistry (QHWSHGWYPG; not fully specified; ends and bridges not checked; UniProt P68072 1-10, looked up)
EC50 [4]: 390 pM | EC50 [5]: 690 pM | secretion of mature CART peptide ([6]; 0–100 nM): potently stimulated the secretion of mature CART peptide | minimal effective concentration, CART secretion [6]: 1 nM | EC50 [7]: 270 pM | EC50 [8]: 260 pM | activation of GnRHR1 (luciferase activity) [9]: stimulate the luciferase activities dose-dependently; also recorded: potently activated by GnRH2 | effect on CART mRNA expression, time and dose dependence ([3]; 10 nM time course or 0–100 nM for 48 h, qPCR): induce CART expression in time- and dose-dependent manners | EC50 [10]: 2840 pM | relative potency at GnRHR2 ([11]; GnRH2 compared with GnRH1, GnRHR2, CHO cells): slightly more potent than GnRH1 | activation of GnRHR2 (luciferase activity) ([11]; GnRHR2, CHO cells, calcium, MAPK/ERK and cAMP/PKA reporters): stimulate the luciferase activities dose-dependently; also recorded: potently activated by both GnRH1 and GnRH2 | EC50 [12]: 3100 pM
